Laboratory results as given in patent publication US10183943B2, “Heterocyclic compounds and their use in preventing or treating bacterial infections” (MUTABILIS, priority 2015, dated 2019).

Key:
Assay type in all cases: cell-based
[1] = system: E. cloacae 260508 (TEM-1, CTX-M-15); assay: MIC of ceftazidime (CAZ) in combination with compounds at 4 μg/mL, broth microdilution; settings: Enterobacter cloacae; strain 260508; CAZ alone, no compound
Procedure: (§1) Method 2: MIC of Compounds and Synergy with Ceftazidime Against Bacterial Isolates (Table 2 and 3)
(§2) Compounds of the present invention were assessed against genotyped bacterial strains alone or in combination with the β-lactam ceftazidime (CAZ). In the assays, MICs of said compounds, or of ceftazidime at fixed concentrations of said compounds were determined by the broth microdilution method according to the Clinical Laboratory Standards Institute (CLSI-M7-A7). Briefly, compounds alone according to the invention were prepared in DMSO and spotted (2 μL each) on sterile polystyrene plates (Corning, 3788). Compounds and ceftazidime dilutions were prepared in DMSO and spotted (1 μL each) on sterile polystyrene plates (Corning, 3788). Log phase bacterial suspensions were adjusted to a final density of 5×10^5 cfu/mL in cation-adjusted Mueller-Hinton broth (Becton-Dickinson) and added to each well (98 μL). Microplates were incubated for 16-20 h at 35° C. in ambient air. The MIC of the compounds was defined as the lowest concentration of said compounds that prevented bacterial growth as read by visual inspection. The MIC of ceftazidime at each compound concentration was defined as the lowest concentration of ceftazidime that prevented bacterial growth as read by visual inspection.

E. cloacae P99 (AmpC) = assay: as above; settings: Enterobacter cloacae; strain P99; CAZ alone, no compound
Procedure: as §1, §2

[2] = system: E. cloacae UFR51 (SHV-12, IMP-8); assay: as above; settings: Enterobacter cloacae, read-out: MIC of CAZ
Procedure: as §1, §2

[3] = system: E. cloacae UFR70 (TEM-1, CTX-M-15, CMY-2, OXA-1, Porin loss); assay: as above; settings: Enterobacter cloacae, read-out: MIC of CAZ
Procedure: as §1, §2

[4] = system: E. cloacae UFR85 (TEM-1, CTX-M-15, AmpC); assay: as above; settings: Enterobacter cloacae; strain UFR85; CAZ alone, no compound
Procedure: as §1, §2

[5] = system: E. coli 131119 (TEM-1, OXA-48); assay: as above; settings: Escherichia coli; strain 131119; CAZ alone, no compound
Procedure: as §1, §2

E. coli RGN238 (OXA-1) = assay: as above; settings: Escherichia coli; strain RGN238; CAZ alone, no compound
Procedure: as §1, §2

[6] = system: E. coli UFR18 (CTX-M-15, OXA-204); assay: as above; settings: Escherichia coli, read-out: MIC of CAZ
Procedure: as §1, §2

[7] = system: E. coli UFR32 (TEM-1, VEB-1, OXA-10); assay: as above; settings: Escherichia coli, read-out: MIC of CAZ
Procedure: as §1, §2

[8] = system: E. coli UFR41 (TEM-1, CTX-M-15, CMY-2, OXA-1, NDM-4); assay: as above; settings: Escherichia coli, read-out: MIC of CAZ
Procedure: as §1, §2

[9] = system: E. coli UFR61O (TEM-1, KPC-2); assay: as above; settings: Escherichia coli; strain UFR61O; CAZ alone, no compound
Procedure: as §1, §2

[10] = system: E. coli UFR74 (SHV-1, DHA-1); assay: as above; settings: Escherichia coli; strain UFR74; CAZ alone, no compound
Procedure: as §1, §2

[11] = system: K. oxytoca UFR21 (TEM-1, CTX-M-15, OXA-48); assay: as above; settings: Klebsiella oxytoca; strain UFR21; CAZ alone, no compound
Procedure: as §1, §2

[12] = system: K. pneumoniae 160143 (TEM-1, SHV-1, CTX-M-15, KPC-2, OXA-1); assay: as above; settings: Klebsiella pneumoniae; strain 160143; CAZ alone, no compound
Procedure: as §1, §2

[13] = system: K. pneumoniae 200047 (TEM-1, SHV-32, CTX-M-15, OXA-1); assay: as above; settings: Klebsiella pneumoniae; strain 200047; CAZ alone, no compound
Procedure: as §1, §2

[14] = system: K. pneumoniae 6299 (TEM-1, SHV-11, OXA-163); assay: as above; settings: Klebsiella pneumoniae; strain 6299; CAZ alone, no compound
Procedure: as §1, §2

[15] = system: K. pneumoniae BAA-1898 (TEM-1, SHV-11, SHV-12, KPC-2); assay: as above; settings: Klebsiella pneumoniae, BAA1898; strain BAA-1898; CAZ alone, no compound
Procedure: as §1, §2

[16] = system: K. pneumoniae UFR24 (TEM-1, SHV-2, SHV-11, OXA-1, OXA-48, OXA-47); assay: as above; settings: Klebsiella pneumoniae, read-out: MIC of CAZ
Procedure: as §1, §2

[17] = system: K. pneumoniae UFR39 (CTX-M-15, NDM-1); assay: as above; settings: Klebsiella pneumoniae; strain UFR39; CAZ alone, no compound
Procedure: as §1, §2

[18] = system: K. pneumoniae UFR77 (CMY-2); assay: as above; settings: Klebsiella pneumoniae; strain UFR77; CAZ alone, no compound
Procedure: as §1, §2

[19] = system: P. aeruginosa CIP107051 (TEM-24); assay: as above; settings: Pseudomonas aeruginosa; strain CIP107051; CAZ alone, no compound
Procedure: as §1, §2

[20] = system: E. coli 190317 (TEM-1, SHV-12, CTX-M-15, OXA-1); assay: microbe, parasite or virus in culture; settings: Escherichia coli; strain 190317; CAZ alone, no compound
Procedure: as §1, §2

[21] = system: K. pneumoniae UFR68 (TEM-1, SHV-11, CTX-M-15, KPC-3); assay: microbe, parasite or virus in culture; settings: Klebsiella pneumoniae, read-out: MIC of CAZ
Procedure: as §1, §2

## CC(C)(O/N=C(\C(=O)N[C@@H]1C(=O)N2C(C(=O)[O-])=C(C[n+]3ccccc3)CS[C@H]12)c1csc(N)n1)C(=O)O [ceftazidime]
[1]
  MIC: 128 µg/mL
E. cloacae P99 (AmpC)
  MIC: 128 µg/mL
[2]
  MIC: > 128 µg/mL
[3]
  MIC: > 128 µg/mL
[4]
  MIC: 128 µg/mL
[5]
  MIC: 0.5 µg/mL
E. coli RGN238 (OXA-1)
  MIC: 0.5 µg/mL
[6]
  MIC: > 128 µg/mL
[7]
  MIC: > 128 µg/mL
[8]
  MIC: > 128 µg/mL
[9]
  MIC: 128 µg/mL
[10]
  MIC: 64 µg/mL
[11]
  MIC: 128 µg/mL
[12]
  MIC: 128 µg/mL
[13]
  MIC: 128 µg/mL
[14]
  MIC: 256 µg/mL
[15]
  MIC: 256 µg/mL
[16]
  MIC: > 128 µg/mL
[17]
  MIC: > 1020 µg/mL
[18]
  MIC: 64 µg/mL
[19]
  MIC: 256 µg/mL
[20]
  MIC: 128 µg/mL
[21]
  MIC: > 128 µg/mL
